# In US4880791A, “Combination product composed of xanthine derivatives and O-acetylsalicylic acid or its pharmacologically tolerated salts, and its use” (priority 1984, dated 1989):
# What was measured:
# [1] = tested on: induced platelet aggregation; assay: collagen-induced platelet aggregation in arthritic rats; format: in vivo, rat; details: oral 21 days
# Method: (§1) The hemorheological, antithrombotic, antiaggregatory and antiinflammatory effects of the combinations according to the invention were investigated after oral administration for 21 days in the pathological model of adjuvant arthritis (induced with Mycobacterium butyricum) is the rat by the method of Clincal Hemorheology 3 (1983) 469-480, and were compared with those of the appropriate individual substances. Blood was taken from the thoracic aorta 1 hour after the last administration of substance. All the details of the determination of the hemorheological effect were as described in Clinical Hemorheology 4 (1984) 263-273. The erythocyte deformability was quantitatively determined in a filtrometer (Myrenne MF 4, Roetgen, Germany) by evaluation of the initial gradient of the flow curve.
# The measurements of platelet aggregation were carried out as described above in detail. However, instead of arachidonic acid 0.04 mg of collagen was used to induce platelet aggregation in 1 ml of platelet-rich plasma (PA II aggregometer from Myrenne, Roetgen).
# [2] = customary doses; cited from earlier work
# [3] = tested on: laser-induced thrombosis in the arterioles and venules of the rat mesentery; assay: laser-induced thrombosis in arterioles of the rat mesentery; format: in vivo, rat (female Sprague-Dawley); details: for Changes from controls, % / Changes from controls, absolute / Number of shots: single substance
# Method: The evaluation was carried out by analysis by vital microscopy (Nature, 218 (1968) 887 and Haemostasis 13 (1983) 61 and IRCS Med. Sci. 12 (1984) 91).
# The test substances were administered in 0.9% sodium chloride solution (which contained 1% carboxymethylcellulose (Serva, Heidelberg)) either orally, intraperitoneally or intravenously. Control animals were treated in the corresponding manner but without the test substances. The experimental animals used were male or female Sprague-Dawley or Wistar rats.
# The animals which were to be investigated underwent s.c. premedication with 0.1 mg of atropine sulfate in solution and were anesthetized with 100 mg of ketamine hydrochloride and 4 mg of xylazine per kg of body weight i.p. The investigation made use of arterioles and venules of the mesentery, which was coated with degassed liquid paraffin, having a diameter of about 13 μm. The beam of a 4 W argon laser (supplied by Spectra Physics, Darmstadt) was introduced coaxially, by means of a beam adaptation and adjustment system (supplied by BTG, Munich), into the inverted optical path of a microscope (ICM 405, LD-Epipland 40/0.60; supplied by Zeiss, Oberkochen). The wavelength used was 514.5 nm, with an energy above the objective of 30.5 mW. The exposure time per single shot was 1/15 sec. All the measuring operations were recorded by video camera (Trinicon tube, Sony, Cologne) and stored in a recorder (Sony, U-matic 3/4"). The test substances were administered in various doses to the experimental animals, orally one hour, and on i.v. administration 10 min., before the start of the experiment, control animals receiving the same amount of placebo.
# The number of shots needed to induce a defined thrombus is counted.
# The results of the experiment were subjected to statistical analysis using the .chi.^2 test (L. Cavalli-Sforza, Biometrie (Biostatistics), Stuttgart, 1969, pages 49 et seq.). […]
# [4] = tested on: vascular cyclooxygenase; details: cited from earlier work
# [5] = tested on: cyclooxygenase; details: cited from earlier work
# [6] = tested on: tendency to thrombosis in arthritic rat; assay: laser-induced tendency to thrombosis in arthritic rats; format: in vivo; details: oral 21 days
# Method: as §1
# The antithrombotic effect was measured using the laser model as described above.
# [7] = tested on: adjuvant arthritis (Mycobacterium butyricum) in the rat; assay: antiinflammatory effect in adjuvant arthritis (paw edema, necrosis index); format: in vivo
# Method: as §1
# The antiflammatory effect was quantitatively measured, as quoted above, using the volume of the edema of the paw and using the standard necrosis index.
# [8] = tested on: erythrocyte filterability; assay: erythrocyte filterability in adjuvant arthritis rats; format: in vivo, rat; details: oral 21 days
# Method: as §1
# [9] = tested on: rat aortas; details: treatment of the rats with acetylsalicylic acid; cited from earlier work
# [10] = tested on: mucosa of the glandular stomach; assay: test of gastric tolerance (ulcerogenic effect); format: in vivo, rat (male Sprague-Dawley); details: for Number of animals with ulcers: 10 animals
# Method: 24 hours after the last medication, the stomach was cut open along the lesser curvature, cleaned under running water, and inspected for mucosal lesions. All lesions visible on macroscopic inspection of the mucosa of the glandular stomach were regarded as ulcers.
# [11] = tested on: human blood platelets; details: cited from earlier work
# [12] = Table 1b, 1 mg/kg acetylsalicylic acid without pentoxifylline
structure (smiles),measurement,setting,value
"CC(=O)Oc1ccccc1C(=O)O [Acetylsalicylic acid, O-acetylsalicylic acid]",induced platelet aggregation,"[1]; 10 mg, untreated arthritic = 100%, healthy 0%",62%
same,induced platelet aggregation,[1]; 180 mg,35%
same,undesired side effects,[2],"asthma, allergic urticaria, analgesic nephropathy and peptic ulcers"
same,"Changes from controls, %",[3]; 1 mg/kg oral,-13%
same,"Changes from controls, absolute",[3]; 1 mg/kg oral,"-0,35"
same,Number of shots,[3]; 1 mg/kg oral,"1,88"
same,"Changes from controls, %",[3]; 5 mg/kg oral,-18%
same,"Changes from controls, absolute",[3]; 5 mg/kg oral,"-0,38"
same,Number of shots,[3]; 5 mg/kg oral,"1,79"
same,"Changes from controls, %",[3]; 10 mg/kg oral,35%
same,"Changes from controls, absolute",[3]; 10 mg/kg oral,"0,75"
same,Number of shots,[3]; 10 mg/kg oral,"2,92"
same,"Changes from controls, %",[3]; 30 mg/kg oral,48%
same,"Changes from controls, absolute",[3]; 30 mg/kg oral,"1,04"
same,Number of shots,[3]; 30 mg/kg oral,"3,21"
same,% change from controls,[3]; [12],-13%
same,-x (number of shots),[3]; [12],"1,90"
same,effect in laser-induced thrombosis,[3]; oral dose 10 mg/kg,significant effect
same,effect in laser-induced thrombosis,[3]; single oral dose 5 mg/kg,not significant
same,inhibition of vascular cyclooxygenase,[4],found only at higher doses
same,cyclooxygenase localized in the blood platelets,[5],inhibits the enzyme cyclooxygenase
same,tendency to thrombosis (number of shots),"[6]; 10 mg, healthy = 100%, untreated arthritic 46%",47%
same,tendency to thrombosis (number of shots),[6]; 180 mg,91%
same,"Percentage improvement, necrosis index",[7]; 10 mg,8%
same,"Percentage improvement, volume of paw edema, left paw",[7]; 10 mg,2%
same,"Percentage improvement, volume of paw edema, right paw",[7]; 10 mg,3%
same,"Percentage improvement, necrosis index",[7]; 180 mg,28%
same,"Percentage improvement, volume of paw edema, left paw",[7]; 180 mg,28%
same,"Percentage improvement, volume of paw edema, right paw",[7]; 180 mg,26%
same,erythrocyte filterability,"[8]; 10 mg, healthy = 100%, untreated arthritic 59%",63%
same,erythrocyte filterability,[8]; 180 mg,68%
same,erythrocyte filterability in arthritic rats (in words),[8],can be increased again
same,release of the substance having antiaggregatory activity stimulated by pentoxifylline,[9],can be suppressed
same,Number of animals with ulcers,[10]; acetylsalicylic acid 25 mg/kg oral,5
same,Number of animals with ulcers,[10]; acetylsalicylic acid 50 mg/kg oral,7
same,Number of animals with ulcers,[10]; acetylsalicylic acid 100 mg/kg oral,9
same,Number of animals with ulcers,"[10]; acetylsalicylic acid 1,25 mg/kg oral",1
same,Number of animals with ulcers,"[10]; acetylsalicylic acid 12,50 mg/kg oral",2
same,gastric ulcerogenicity,[10]; acetylsalicylic acid after pretreatment with pentoxifylline,unaffected by pretreatment with pentoxifylline
same,aggregation of human blood platelets,[11],inhibitor of the aggregation
